The record followed here is patent US10703756B2, “Pyrrolo[2,3-D]pyrimidinyl, pyrrolo[2,3-B]pyrazinyl, pyrrolo[2,3-B]pyridinyl acrylamides and epoxides thereof” (Pfizer Inc., priority 2015, dated 2020).

In one experiment the target is T1, JAK3 enzyme (Homo sapiens, UniProt P52333).
T1 sequence (P52333 1-1124): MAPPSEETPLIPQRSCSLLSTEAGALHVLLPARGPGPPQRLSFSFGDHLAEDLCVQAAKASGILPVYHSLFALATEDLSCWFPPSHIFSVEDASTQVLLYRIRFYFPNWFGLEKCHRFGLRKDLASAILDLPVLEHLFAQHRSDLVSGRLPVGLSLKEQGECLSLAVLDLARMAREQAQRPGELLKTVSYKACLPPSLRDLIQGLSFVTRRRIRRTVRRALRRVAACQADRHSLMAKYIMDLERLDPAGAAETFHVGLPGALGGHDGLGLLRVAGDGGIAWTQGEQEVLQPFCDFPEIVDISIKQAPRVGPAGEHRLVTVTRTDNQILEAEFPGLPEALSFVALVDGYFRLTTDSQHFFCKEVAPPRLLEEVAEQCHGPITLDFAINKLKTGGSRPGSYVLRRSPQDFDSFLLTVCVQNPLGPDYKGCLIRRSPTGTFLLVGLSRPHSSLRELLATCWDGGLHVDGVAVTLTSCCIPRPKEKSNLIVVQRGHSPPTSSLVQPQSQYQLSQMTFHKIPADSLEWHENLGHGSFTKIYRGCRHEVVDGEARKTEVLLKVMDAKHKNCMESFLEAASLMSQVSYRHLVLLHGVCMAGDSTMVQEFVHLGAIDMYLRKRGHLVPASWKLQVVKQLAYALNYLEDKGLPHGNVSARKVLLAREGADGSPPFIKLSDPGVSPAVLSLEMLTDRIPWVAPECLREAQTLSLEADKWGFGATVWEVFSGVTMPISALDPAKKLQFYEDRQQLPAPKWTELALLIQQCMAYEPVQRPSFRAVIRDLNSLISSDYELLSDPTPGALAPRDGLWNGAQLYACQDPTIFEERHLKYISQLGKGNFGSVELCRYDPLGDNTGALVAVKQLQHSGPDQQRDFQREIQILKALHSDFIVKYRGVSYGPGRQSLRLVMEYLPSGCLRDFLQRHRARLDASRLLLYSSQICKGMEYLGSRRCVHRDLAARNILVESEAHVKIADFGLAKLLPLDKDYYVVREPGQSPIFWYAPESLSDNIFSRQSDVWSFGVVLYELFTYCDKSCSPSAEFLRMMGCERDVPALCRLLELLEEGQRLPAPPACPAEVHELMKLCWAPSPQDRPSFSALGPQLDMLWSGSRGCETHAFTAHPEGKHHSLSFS
Nature of the experiment: JAK Caliper Enzyme Assay at 4 μM ATP. The experiment is classed as biochemical. In outline:
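Test compounds were diluted in DMSO as an 11-point half-log series from a 600 μM top concentration (DMSO series, not final assay level). Enzyme amount and incubation time were set per enzyme prep to reach 20%-30% phosphorylation. Phosphorylated and unphosphorylated peptide were resolved by microfluidic separation.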

For experiment [1], the system named is IL-15 induced P-STAT5 in human PBMC. Nature of the experiment: PBMC IL-15 Induced P-STAT5. The experiment is classed as cell-based. The following applies: human PBMC, IL-15 final 41 ng/mL; read-out: PBMC IL15_pSTAT5_IC50. A digest of the protocol:
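Thawed human PBMC, rested in human plasma, were preincubated 15 min at 37 °C with compound (0.2% DMSO), then stimulated 15 min with IL-15 at 41 ng/mL final. After paraformaldehyde fixation and methanol permeabilisation, Alexa Fluor 647 anti-STAT5 staining overnight at 4 °C was analysed by flow cytometry on total lymphocytes.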

Molecules are shown by their SMILES.

As to `C=CC(=O)N1CCC(Oc2cnc3[nH]cc(C(=O)NC4CCCC4(F)F)c3n2)CC1` (centres unmarked) [Example 219, 2-[(1-acryloylpiperidin-4-yl)oxy]-N-(2,2-difluorocyclopentyl)-5H-pyrrolo[2,3-b)pyrazine-7-carboxamide], the IC50 was 0.363 nM at JAK3 enzyme and 134 nM in experiment [1].
With `C=CC(=O)N1CCC(Oc2cnc3[nH]cc(C(=O)N[C@H]4CC[C@@H](F)C4)c3n2)CC1` [Example 225, 2-[(1-acryloylpiperidin-4-yl)oxy]-N-[(1S,3R)-3-fluorocyclopentyl]-5H-pyrrolo[2,3-b]pyrazine-7-carboxamide], the IC50 turned out to be 0.233 nM on JAK3 enzyme and 170 nM in experiment [1].
Regarding `C=CC(=O)N1CCC(Oc2cnc3[nH]cc(C(=O)N[C@H](C)CC)c3n2)CC1` [Example 227, 2-[(1-acryloylpiperidin-4-yl)oxy]-N-[(2R)-butan-2-yl]-5H-pyrrolo[2,3-b]pyrazine-7-carboxamide], the IC50 on JAK3 enzyme worked out at 0.279 nM; in experiment [1], 146 nM.
`C=CC(=O)N1CCC(Oc2cnc3[nH]cc(C(=O)N[C@@H](C)COC)c3n2)CC1` [Example 228, 2-[(1-acryloylpiperidin-4-yl)oxy]-N-[(2S)-1-methoxypropan-2-yl]-5H-pyrrolo[2,3-b]pyrazine-7-carboxamide]: the values for the IC50 (at JAK3 enzyme; in experiment [1]) were 0.229 nM and 93.3 nM, respectively.
`C=CC(=O)N1CCC(Oc2cnc3[nH]cc(C(=O)N[C@@H]4CCC[C@H]4F)c3n2)CC1` [Example 229, 2-[(1-acryloylpiperidin-4-yl)oxy]-N-[(1R,2R)-2-fluorocyclopentyl]-5H-pyrrolo[2,3-b]pyrazine-7-carboxamide]: the IC50 on JAK3 enzyme is 0.582 nM; in experiment [1], 221 nM.
The like results for `C=CC(=O)N1CCC(Oc2cnc3[nH]cc(C(=O)N[C@@H]4CCC[C@@H]4F)c3n2)CC1` [Example 230, 2-[(1-acryloylpiperidin-4-yl)oxy]-N-[(1R,2S)-2-fluorocyclopentyl]-5H-pyrrolo[2,3-b]pyrazine-7-carboxamide] were, in that order, 0.305 nM and 155 nM.
For `C=CC(=O)N1CC[C@H](Nc2cnc3[nH]cc(C(=O)NCC4CCCC4)c3n2)[C@H](OC)C1` [Example 284, 2-{[(3R,4S)-1-acryloyl-3-methoxypiperidin-4-yl]amino}-N-(cyclopentylmethyl)-5H-pyrrolo[2,3-b]pyrazine-7-carboxamide], the IC50 was found to be 0.301 nM against JAK3 enzyme and 186 nM in experiment [1].
In the case of `C=CC(=O)N1CCN(c2cnc3[nH]cc(C(=O)NCC(C)C)c3n2)C[C@@H]1CC(C)C` [Example 288, 2-[(3S)-4-acryloyl-3-(2-methylpropyl)piperazin-1-yl]-N-(2-methylpropyl)-5H-pyrrolo[2,3-b]pyrazine-7-carboxamide], the IC50 was 0.376 nM at JAK3 enzyme and 151 nM in experiment [1].
Turning to `C=CC(=O)N1CC[C@H](Nc2cnc3[nH]cc(C(=O)NCC(F)(F)F)c3n2)[C@H](OC)C1` [Example 293, 2-{[(3R,4S)-1-acryloyl-3-methoxypiperidin-4-yl]amino}-N-(2,2,2-trifluoroethyl)-5H-pyrrolo[2,3-b]pyrazine-7-carboxamide], the IC50 came to 0.68 nM at JAK3 enzyme and 218 nM in experiment [1].
As for `C=CC(=O)N1CCN(c2cnc3[nH]cc(C(=O)N[C@@H](C)COC)c3n2)CC1` [Example 295, 2-(4-acryloylpiperazin-1-yl)-N-[(2S)-1-methoxypropan-2-yl]-5H-pyrrolo[2,3-b]pyrazine-7-carboxamide], the IC50 stood at 0.179 nM on JAK3 enzyme and 71 nM in experiment [1].
For `C=CC(=O)N1CCN(c2cnc3[nH]cc(C(=O)N[C@@H](C)COC)c3n2)CC1(C)C` [Example 298, 2-(4-acryloyl-3,3-dimethylpiperazin-1-yl)-N-[(2S)-1-methoxypropan-2-yl]-5H-pyrrolo[2,3-b]pyrazine-7-carboxamide], the IC50 on JAK3 enzyme stood at 0.485 nM; in experiment [1] it was 210 nM.
As for `C=CC(=O)N1CCN(c2cnc3[nH]cc(C(=O)N[C@H](CC)CC#N)c3n2)C[C@@H]1CC(C)C` [Example 314, 2-[(3S)-4-acryloyl-3-(2-methylpropyl)piperazin-1-yl]-N-[(2R)-1-cyanobutan-2-yl]-5H-pyrrolo[2,3-b]pyrazine-7-carboxamide], the IC50 turned out to be 0.24 nM against JAK3 enzyme and 115 nM in experiment [1].
As to `C=CC(=O)N1CC[C@H](Nc2cnc3[nH]cc(C(=O)NCCCC(F)(F)F)c3n2)[C@H](OC)C1` [Example 319, 2-{[(3R,4S)-1-acryloyl-3-methoxypiperidin-4-yl]amino}-N-(4,4,4-trifluorobutyl)-5H-pyrrolo[2,3-b]pyrazine-7-carboxamide], the IC50 worked out at 0.404 nM against JAK3 enzyme and 211 nM in experiment [1].
As to `C=CC(=O)N1CC[C@@H](Nc2cnc3[nH]cc(C(=O)NCC(C)(F)F)c3n2)[C@@H](OC)C1` [Example 321, 2-{[(3S,4R)-1-acryloyl-3-methoxypiperidin-4-yl]amino}-N-(2,2-difluoropropyl)-5H-pyrrolo[2,3-b]pyrazine-7-carboxamide], the IC50 against JAK3 enzyme amounted to 0.448 nM; in experiment [1] it was 310 nM.
On to `C=CC(=O)N1CCC(C)(Nc2cnc3[nH]cc(C(=O)NC4CCC4)c3n2)CC1` [Example 324, 2-[(1-acryloyl-4-methylpiperidin-4-yl)amino]-N-cyclobutyl-5H-pyrrolo[2,3-b]pyrazine-7-carboxamide], for which the IC50 was found to be 0.418 nM against JAK3 enzyme and 203 nM in experiment [1].
For the molecule `C=CC(=O)N1CC[C@H](Nc2cnc3[nH]cc(C(=O)NCC)c3n2)[C@H](OC)C1` [Example 326, 2-{[(3R,4S)-1-acryloyl-3-methoxypiperidin-4-yl]amino}-N-ethyl-5H-pyrrolo[2,3-b]pyrazine-7-carboxamide], the results for the IC50 (on JAK3 enzyme; in experiment [1]) were 0.455 nM and 330 nM, respectively.
The like results for `C=CC(=O)N1CCN(c2cnc3[nH]cc(C(=O)N[C@H](C)COC)c3n2)CC1(C)C` [Example 327] were, in that order, 0.546 nM and 261 nM.
For the molecule `C=CC(=O)N1CC[C@@H](Nc2cnc3[nH]cc(C(=O)N[C@H](C)COC)c3n2)[C@@H](OC)C1` [Example 331, 2-{[(3S,4R)-1-acryloyl-3-methoxypiperidin-4-yl]amino}-N-[(2R)-1-methoxypropan-2-yl]-5H-pyrrolo[2,3-b]pyrazine-7-carboxamide], the IC50 against JAK3 enzyme is 0.313 nM; in experiment [1] it was 288 nM.
Consider `C=CC(=O)N1CCN(c2cnc3[nH]cc(C(=O)N[C@H](C)COC)c3n2)CC1` [Example 332], for which the figures for the IC50 (at JAK3 enzyme; in experiment [1]) were 0.262 nM and 87.7 nM, respectively.
